Experimental findings from US10005768B2, “Carboxamide derivatives and use thereof” (Purdue Pharma L.P., priority 2013, dated 2018) are described below.

SMILES strings stand for the structures.

human Nav1.7, sequence (Q15858 other isoform, or with tags, fused parts or gaps): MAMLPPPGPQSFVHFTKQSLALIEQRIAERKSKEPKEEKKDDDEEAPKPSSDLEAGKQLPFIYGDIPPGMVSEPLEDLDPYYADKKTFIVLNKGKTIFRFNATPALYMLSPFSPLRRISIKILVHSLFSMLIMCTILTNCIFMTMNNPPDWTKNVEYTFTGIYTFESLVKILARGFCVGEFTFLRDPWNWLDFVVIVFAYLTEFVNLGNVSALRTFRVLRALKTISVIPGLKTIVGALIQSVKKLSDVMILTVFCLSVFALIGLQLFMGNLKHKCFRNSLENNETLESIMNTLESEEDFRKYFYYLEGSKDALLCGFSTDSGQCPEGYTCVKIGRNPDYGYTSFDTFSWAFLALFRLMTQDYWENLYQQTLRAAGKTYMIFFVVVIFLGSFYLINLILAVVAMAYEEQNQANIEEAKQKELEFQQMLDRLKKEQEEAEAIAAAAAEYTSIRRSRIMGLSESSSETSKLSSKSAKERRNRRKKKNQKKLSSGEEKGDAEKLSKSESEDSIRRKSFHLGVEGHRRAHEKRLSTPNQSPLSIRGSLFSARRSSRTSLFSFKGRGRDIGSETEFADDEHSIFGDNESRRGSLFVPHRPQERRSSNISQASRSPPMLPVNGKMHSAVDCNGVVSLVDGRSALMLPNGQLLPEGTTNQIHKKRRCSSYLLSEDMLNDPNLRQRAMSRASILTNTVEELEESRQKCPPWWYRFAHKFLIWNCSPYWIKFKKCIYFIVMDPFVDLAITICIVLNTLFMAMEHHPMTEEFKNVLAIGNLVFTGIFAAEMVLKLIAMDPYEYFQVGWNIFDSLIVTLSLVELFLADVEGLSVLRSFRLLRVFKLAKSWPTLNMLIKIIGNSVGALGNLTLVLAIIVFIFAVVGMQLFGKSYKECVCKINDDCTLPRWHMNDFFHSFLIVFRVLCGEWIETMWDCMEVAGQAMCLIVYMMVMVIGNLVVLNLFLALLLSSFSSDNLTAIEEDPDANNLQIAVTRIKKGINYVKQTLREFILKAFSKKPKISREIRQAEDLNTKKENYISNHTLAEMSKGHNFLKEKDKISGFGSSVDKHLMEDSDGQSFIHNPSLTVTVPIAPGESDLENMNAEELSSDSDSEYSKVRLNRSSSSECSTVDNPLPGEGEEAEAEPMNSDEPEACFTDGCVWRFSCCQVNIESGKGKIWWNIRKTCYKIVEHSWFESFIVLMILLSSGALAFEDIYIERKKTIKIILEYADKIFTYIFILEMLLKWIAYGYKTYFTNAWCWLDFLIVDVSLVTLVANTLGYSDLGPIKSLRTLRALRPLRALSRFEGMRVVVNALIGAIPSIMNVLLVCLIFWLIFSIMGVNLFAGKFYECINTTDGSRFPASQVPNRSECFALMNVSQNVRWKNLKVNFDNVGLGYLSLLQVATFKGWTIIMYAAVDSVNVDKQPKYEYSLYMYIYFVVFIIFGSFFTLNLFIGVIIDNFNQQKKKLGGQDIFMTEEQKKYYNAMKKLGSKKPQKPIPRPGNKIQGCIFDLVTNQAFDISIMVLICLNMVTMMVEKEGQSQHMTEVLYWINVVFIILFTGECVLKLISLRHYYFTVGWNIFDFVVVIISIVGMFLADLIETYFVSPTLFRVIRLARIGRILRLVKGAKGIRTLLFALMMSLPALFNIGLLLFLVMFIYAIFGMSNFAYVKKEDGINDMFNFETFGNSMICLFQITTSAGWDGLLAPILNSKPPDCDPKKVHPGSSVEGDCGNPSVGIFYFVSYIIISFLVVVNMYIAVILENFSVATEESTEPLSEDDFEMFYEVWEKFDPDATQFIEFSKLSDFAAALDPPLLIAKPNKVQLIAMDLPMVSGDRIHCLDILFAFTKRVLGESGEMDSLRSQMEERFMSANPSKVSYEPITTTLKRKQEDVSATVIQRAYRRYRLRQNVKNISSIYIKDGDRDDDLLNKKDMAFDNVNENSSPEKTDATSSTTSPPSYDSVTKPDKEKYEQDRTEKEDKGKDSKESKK

For the test, the target named is human Nav1.7 (Homo sapiens (Human), UniProt Q15858). As to the kind of experiment: FLIPR membrane potential dye assay (alternative fluorescence assay). The format is cell-based. Particulars: recombinant Nav1.7/HEK293 cells. The procedure:
In vitro assays were performed in a recombinant cell line expressing cDNA encoding the alpha subunit (Nav1.7, SCN9a, PN1, NE) of human Nav1.7 (Accession No. NM_002977). The cell line was provided by investigators at Yale University (Cummins et al, J. Neurosci. 18(23): 9607-9619 (1998)). For dominant selection of the Nav1.7-expressing clones, the expression plasmid co-expressed the neomycin resistance gene. The cell line was constructed in the human embryonic kidney cell line, HEK293, under the influence of the CMV […] promoter, and stable clones were selected using limiting dilution cloning and antibiotic selection using the neomycin analogue, G418. Recombinant beta and gamma subunits were not introduced into this cell line. Additional cell lines expressing recombinant Nav1.7 cloned from other species can also be used, alone or in combination with various beta subunits, gamma subunits or chaperones.
A fluorescence indicator that can be used in alternative fluorescence assays is the blue version membrane potential dye (MDS, Molecular Devices, Sunnyvale, Calif.), a dye that detects changes in molecules following a change in membrane potential. An increase in fluorescence is expected if agonist stimulation provokes a change in membrane potential. Cells expressing Nav1.7 or other sodium channels are incubated with the membrane potential dye 30-60 minutes before the fluorescence assay. In the case of the KCl pre-stimulation version of the assay, the dye and all other components are washed out immediately before the assay, and the dye is then replaced. In the version lacking KCl pre-stimulation, the dye remains on the cells and is not washed out or replaced. The dye is stored in the dark as a lyophilized powder, and then an aliquot dissolved in assay buffer to form a 20×-concentrated stock solution that can be used for several weeks.
In the fluorescence assays, two agonists were used in combination, namely 1) veratridine; and 2) the venom from the yellow scorpion, Leiurus quinquestriatus hebraeus. Veratridine is an alkaloid small molecule that facilitates the capture of channel openings by inhibiting inactivation, and the scorpion venom is a natural preparation that includes peptide toxins selective for different subsets of voltage-gated sodium channels. These scorpion toxins inhibit the fast inactivation of their cognate target channels. Stock solutions of the agonists were prepared to 40 mM in DMSO (veratridine) and 1 mg/mL in dH2O (scorpion venom), and then diluted to make a 4× or 2× stock (depending on the particular assay) in assay buffer, the final concentration being 100 μM (veratridine) and 10 μg/mL (scorpion venom). Both of the agonists were purchased from Sigma Aldrich, St. Louis, Mo.
Test compounds were dissolved in DMSO to yield 10 mM stock solutions. The stock solutions were further diluted using DMSO in 1:3 serial dilution steps with 10 points (10,000 μM, […], 370 μM, 123 μM, 41 μM, 14 μM, 4.6 μM, 1.5 μM and 0.5 μM). The stock solutions were further diluted in assay buffer (1:125) as 4× stock serial dilutions with a DMSO concentration of 0.8% (final [DMSO], in the assay, from the compounds component=0.2%), so that the compounds' final concentrations in the assay were 20 μM, 6.7 μM, 2.2 μM, 0.74 μM, 0.25 μM and 0.08 μM, 0.03 μM, 0.01 μM, 0.003 μM and 0.001 μM. If a particular test article appeared to be especially potent, then the concentration curve was adjusted, e.g., to 10-fold lower concentrations, in order to perform the dose-response in a more relevant concentration range. Compound dilutions were added during the dye-loading and pre-stimulation step, and then again during the fluorescence assay, early in the kinetic read.
The data were analyzed according to methods known to those skilled in the art or using the GraphPad® Prism Program, version 4.0 or higher (available from GraphPad Software, San Diego, Calif.) to determine the IC50 value for the test article. […]
For the compound `C[C@H](Nc1cc(C(N)=O)nc(-c2ccc(Oc3ccccc3-c3ccnn3C)cc2)n1)C(N)=O` [compound 140, (S)-6-((1-amino-1-oxopropan-2-yl)amino)-2-(4-(2-(1-methyl-1H-pyrazol-5-yl)phenoxy)phenyl)-pyrimidine-4-carboxamide], the IC50 (usually the concentration at which inhibition is half-maximal) amounted to 4.23 ± 0.479 µM. Next, `Cn1nccc1-c1cc(Cl)ccc1Oc1ccc(-c2nc(N[C@H]3CCNC3=O)cc(C(N)=O)n2)cc1` [compound 141, (S)-2-(4-(4-chloro-2-(1-methyl-1H-pyrazol-5-yl)phenoxy)phenyl)-6-((2-oxopyrrolidin-3-yl)amino)-pyrimidine-4-carboxamide]: 0.45 ± 0.053 µM. As to `O=C(NC[C@@H](O)CO)c1cc(C(F)(F)F)ccc1Oc1ccc(-c2cccc([C@H](O)CO)n2)cc1` [compound 167, 2-(4-(6-((S)-1,2-dihydroxyethyl)pyridin-2-yl)phenoxy)-N-((R)-2,3-dihydroxypropyl)-5-(trifluoromethyl)benzamide], the IC50 was > 20 µM. For the compound `CCN(CC)C(=O)c1cc(C(F)(F)F)ccc1Oc1ccc(-c2cccc([C@H](O)CO)n2)cc1` [compound 168, (S)-2-(4-(6-(1,2-dihydroxyethyl)pyridin-2-yl)phenoxy)-N,N-diethyl-5-(trifluoromethyl)benzamide], the IC50 was determined as 0.519 ± 0.083 µM.

As for `CCN(C)C(=O)c1cc(C(F)(F)F)ccc1Oc1ccc(-c2cccc([C@H](O)CO)n2)cc1` [compound 169, (S)-2-(4-(6-(1,2-dihydroxy-ethyl)pyridin-2-yl)phenoxy)-N-ethyl-N-methyl-5-(trifluoro-methyl)benzamide], the IC50 is 1.55 ± 0.286 µM. Next, `O=C(c1cc(C(F)(F)F)ccc1Oc1ccc(-c2cccc([C@H](O)CO)n2)cc1)N1CC[C@H](O)C1` [compound 170, (2-(4-(6-((S)-1,2-dihydroxyethyl)pyridin-2-yl)phenoxy)-5-(trifluoromethyl)phenyl)((S)-3-hydroxypyrrolidin-1-yl)methanone]: > 20 µM; `CCN(CCO)C(=O)c1cc(C(F)(F)F)ccc1Oc1ccc(-c2cccc([C@H](O)CO)n2)cc1` [compound 171, (S)-2-(4-(6-(1,2-dihydroxyethyl)pyridin-2-yl)phenoxy)-N-ethyl-N-(2-hydroxyethyl)-5-(trifluoro-methyl)benzamide]: > 20 µM; `CCN(CCN(C)C)C(=O)c1cc(C(F)(F)F)ccc1Oc1ccc(-c2cccc([C@H](O)CO)n2)cc1` [compound 172, (S)-2-(4-(6-(1,2-dihydroxyethyl)pyridin-2-yl)phenoxy)-N-(2-(dimethyl-amino)ethyl)-N-ethyl-5-(trifluoromethyl)benzamide]: 7.97 ± 1.19 µM. Regarding `NC(=O)C1CCCN(C(=O)c2cc(C(F)(F)F)ccc2Oc2ccc(-c3cccc([C@H](O)CO)n3)cc2)C1` (stereo partly drawn) [compound 173, 1-(2-(4-(6-((S)-1,2-dihydroxyethyl)pyridin-2-yl)phenoxy)-5-(trifluoromethyl)benzoyl)piperidine-3-carboxamide], the IC50 is > 20 µM. As for `O=C(Nc1nncs1)c1cc(C(F)(F)F)ccc1Oc1ccc(-c2cccc([C@H](O)CO)n2)cc1` [compound 174, (S)-2-(4-(6-(1,2-dihydroxyethyl)pyridin-2-yl)phenoxy)-N-(1,3,4-thiadiazol-2-yl)-5-(trifluoromethyl)-benzamide], the figure is 3.61 ± 0.229 µM. As to `O=C(Nc1nccs1)c1cc(C(F)(F)F)ccc1Oc1ccc(-c2cccc([C@H](O)CO)n2)cc1` [compound 175, (S)-2-(4-(6-(1,2-dihydroxyethyl)pyridin-2-yl)phenoxy)-N-(thiazol-2-yl)-5-(trifluoromethyl)benzamide], the half-maximal inhibitory concentration (IC50) came out at 1.31 ± 0.054 µM. Regarding `O=C(NCc1nnn[nH]1)c1cc(C(F)(F)F)ccc1Oc1ccc(-c2cccc([C@H](O)CO)n2)cc1` [compound 176, (S)-N-((1H-tetrazol-5-yl)methyl)-2-(4-(6-(1,2-dihydroxyethyl)-pyridin-2-yl)phenoxy)-5-(trifluoromethyl)benzamide], the half-inhibitory concentration (IC50) was > 20 µM.
